Measured values taken from patent publication US20090036473A1, “NOVEL QUINAZOLINONE DERIVATIVES AND THEIR MEDICAL USE” (priority 2006, published 2009).

Target: T1, human Kv72+3 channels (Homo sapiens, UniProt O43525+O43526)
T1 construct: expressed in transfected cells; host or cells: CHO K1 cells, stably expressing
Test: patch-clamp set-up using CHO K1 cell lines stably expressing the human Kv72+3 channels
Format: cell-based
Conditions: at a concentration of 3 μM, CHO K1 cells stably expressing human Kv72+3 channels
Experimental: For example, at a concentration of 3 μM, Compound A4 induces an increase in current amplitude in the order 190%, which is an indication of its potent Kv72+3 activating activity.

increase in current amplitude: ~190%
SMILES: CC(C)c1nc2ccccc2c(=O)n1NC(=O)[C@@H]1C[C@H]1c1ccccc1 (relative stereo) [Compound A4, (Trans)-2-Phenyl-cyclopropanecarboxylic acid (2-isopropyl-4-oxo-4H-quinazolin-3-yl)-amide]
